Values of other authors as cited in patent US20100112105A1, “Antimicrobial efficacy of aframomum Melegueta extract against propionibacterium acnes” (ACCESS BUSINESS GROUP INTERNATIONAL LLC, priority 2008, published 2010).

test system: Mycobacterium chelonei, M. intracellulare, M. smegmatis, and M. xenopi; conditions: Galal, Pharmaceutical Biology 1996

SMILES | activity against mycobacteria
CCCCCCCC(=O)CCc1ccc(O)c(OC)c1 [6-paradol] | active
CCCCC/C=C/C(=O)CCc1ccc(O)c(OC)c1 [6-shogaol] | active
COc1cc(CCC(C)=O)ccc1O [gingerone] | inactive
